Laboratory results published in ChEMBL document CHEMBL1201862, “PubChem BioAssay data set” (2004).
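All cell lines were grown in 96-well plates and treated with compound for 48 hours. GI50 marks 50% less growth.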 Activity calls are given as the source filed them. No stated cut-off is given here; in the data, active = GI50 up to about 1.1 µM and inactive = higher.

Columns and labels:
Test in all cases: growth of human tumour cells (NCI), 48 h
HCT-15 = tested on: HCT-15
786-0 = tested on: 786-0
NCI/ADR-RES = tested on: NCI/ADR-RES
HOP-62 = tested on: HOP-62
HT-29 = tested on: HT-29
HCT-116 = tested on: HCT-116
OVCAR-8 = tested on: OVCAR-8
OVCAR-5 = tested on: OVCAR-5
LOX IMVI = tested on: LOX IMVI
MDA-MB-435 = tested on: MDA-MB-435
RXF 393 = tested on: RXF 393
EKVX = tested on: EKVX
SK-OV-3 = tested on: SK-OV-3
SF-268 = tested on: SF-268
UACC-257 = tested on: UACC-257
CCRF-CEM = tested on: CCRF-CEM
SF-295 = tested on: SF-295
NCI-H226 = tested on: NCI-H226
UO-31 = tested on: UO-31

SMILES	GI50 (HCT-15) [µM]	GI50 (786-0)	GI50 (NCI/ADR-RES)	GI50 (HOP-62)	GI50 (HT-29)	GI50 (HCT-116)	GI50 (OVCAR-8)	GI50 (OVCAR-5)	GI50 (LOX IMVI)	GI50 (MDA-MB-435)	GI50 (RXF 393)	GI50 (EKVX)	GI50 (SK-OV-3)	GI50 (SF-268)	GI50 (UACC-257)	GI50 (CCRF-CEM)	GI50 (SF-295)	GI50 (NCI-H226)	GI50 (UO-31)
Fc1ccccc1-c1cc(S)c2cc3c(cc2n1)OCO3	5.65	10.4 µM (inactive)	4.26 µM (inactive)	> 70.5 µM (inactive)	17.2 µM (inactive)	7.08 µM (inactive)	17.8 µM (inactive)	> 51.3 µM (inactive)	10.9 µM (inactive)	3.59 µM (inactive)	> 54.2 µM (inactive)	10.5 µM (inactive)	16.1 µM (inactive)	> 44.8 µM (inactive)	8.47 µM (inactive)	13.4 µM (inactive)	7.91 µM (inactive)	19.2 µM (inactive)	27.5 µM (inactive)
CC(C)(CCc1nc2ccccc2[nH]1)C(=O)O	> 100	> 100 µM (inactive)	> 100 µM (inactive)	> 100 µM (inactive)	> 100 µM (inactive)	> 100 µM (inactive)	> 100 µM (inactive)	> 100 µM (inactive)	> 100 µM (inactive)	> 100 µM (inactive)	> 100 µM (inactive)	> 100 µM (inactive)	> 100 µM (inactive)	> 100 µM (inactive)	> 100 µM (inactive)	> 100 µM (inactive)	> 100 µM (inactive)	> 100 µM (inactive)	> 100 µM (inactive)
Cc1nnc(N)nc1C/C=C/C(C)Sc1ccc(Cl)cc1 (stereo not drawn)	12.8	8.41 µM (inactive)	9.79 µM (inactive)	6.47 µM (inactive)	16 µM (inactive)	5.74 µM (inactive)	16.5 µM (inactive)	10.9 µM (inactive)	4.4 µM (inactive)	7.73 µM (inactive)	7.28 µM (inactive)	4.61 µM (inactive)	4.52 µM (inactive)	3.78 µM (inactive)	10.8 µM (inactive)	2.33 µM (inactive)	2.77 µM (inactive)	2.04 µM (inactive)	3.49 µM (inactive)
CC1=CC(=O)CC(C)(C)C1/C=C/C(C)=C/C=C/C(C)=C/C=C/C=C(C)/C=C/C=C(C)/C=C/C1C(C)=CC(=O)CC1(C)C (stereo not drawn)	27	34.4 µM (inactive)	72.6 µM (inactive)	42 µM (inactive)	35.7 µM (inactive)	20.2 µM (inactive)	20.1 µM (inactive)	78.5 µM (inactive)	29.3 µM (inactive)	23.4 µM (inactive)	> 100 µM (inactive)	92.9 µM (inactive)	> 100 µM (inactive)	44.4 µM (inactive)	61.2 µM (inactive)	21.6 µM (inactive)	92 µM (inactive)	> 100 µM (inactive)	67.5 µM (inactive)
COc1cccc(/N=C/c2cc(OC)c(OC)c(OC)c2)c1	56.1	> 100 µM (inactive)	> 100 µM (inactive)	94 µM (inactive)	91.2 µM (inactive)	> 100 µM (inactive)	> 100 µM (inactive)	> 53.2 µM (inactive)	> 37.2 µM (inactive)	18.8 µM (inactive)	78.7 µM (inactive)	> 86.7 µM (inactive)	> 100 µM (inactive)	> 100 µM (inactive)	> 100 µM (inactive)	> 100 µM (inactive)	69.8 µM (inactive)	> 54.8 µM (inactive)	> 23 µM (inactive)
C/C(=N/NC(=S)Nc1cccc(C)c1)c1ccccn1	0.0119	0.0217 µM (active)	< 0.01 µM (active)	0.0341 µM (active)	< 0.01 µM (active)	< 0.01 µM (active)	< 0.0183 µM (active)	0.0392 µM (active)	< 0.0121 µM (active)	1.35 µM (inactive)	1.12 µM (inactive)	0.0685 µM (active)	0.025 µM (active)	0.21 µM (active)	< 0.01 µM (active)	< 0.01 µM (active)	0.296 µM (active)	0.0582 µM (active)	0.285 µM (active)
Cn1c2ccccc2c2c3c(=O)[nH][nH]c(=O)c3c3c4ccccc4n(C)c3c21	99.1	> 100 µM (inactive)	> 58.2 µM (inactive)	> 96.6 µM (inactive)	> 100 µM (inactive)	78.3 µM (inactive)	> 100 µM (inactive)	> 100 µM (inactive)	> 100 µM (inactive)	> 100 µM (inactive)	> 100 µM (inactive)	> 100 µM (inactive)	> 100 µM (inactive)	> 100 µM (inactive)	> 100 µM (inactive)	0.655 µM (active)	> 100 µM (inactive)	> 100 µM (inactive)	> 100 µM (inactive)
